In patent publication US20240150321A1, “PYRAZOLYLSULFONAMIDE COMPOUNDS AND THEIR USE IN THERAPY” (HOTSPOT THERAPEUTICS, INC., priority 2022, published 2024):
Read-outs that look alike come from different tables or passages of the source.

Legend:
Avi-tagged FL MALT-1 = Avi-tagged FL MALT-1 (Homo sapiens (Human), UniProt Q9UDY8); assay: MALT-1 Fluorogenic Peptide Cleavage Assay (MALT1 inhibition assay); assay type: biochemical; conditions: Ac-LRSR-AMC peptide substrate, 30 min pre-incubation, 90 min reaction at room temperature
Sequence of Avi-tagged FL MALT-1 (Q9UDY8 whole entry): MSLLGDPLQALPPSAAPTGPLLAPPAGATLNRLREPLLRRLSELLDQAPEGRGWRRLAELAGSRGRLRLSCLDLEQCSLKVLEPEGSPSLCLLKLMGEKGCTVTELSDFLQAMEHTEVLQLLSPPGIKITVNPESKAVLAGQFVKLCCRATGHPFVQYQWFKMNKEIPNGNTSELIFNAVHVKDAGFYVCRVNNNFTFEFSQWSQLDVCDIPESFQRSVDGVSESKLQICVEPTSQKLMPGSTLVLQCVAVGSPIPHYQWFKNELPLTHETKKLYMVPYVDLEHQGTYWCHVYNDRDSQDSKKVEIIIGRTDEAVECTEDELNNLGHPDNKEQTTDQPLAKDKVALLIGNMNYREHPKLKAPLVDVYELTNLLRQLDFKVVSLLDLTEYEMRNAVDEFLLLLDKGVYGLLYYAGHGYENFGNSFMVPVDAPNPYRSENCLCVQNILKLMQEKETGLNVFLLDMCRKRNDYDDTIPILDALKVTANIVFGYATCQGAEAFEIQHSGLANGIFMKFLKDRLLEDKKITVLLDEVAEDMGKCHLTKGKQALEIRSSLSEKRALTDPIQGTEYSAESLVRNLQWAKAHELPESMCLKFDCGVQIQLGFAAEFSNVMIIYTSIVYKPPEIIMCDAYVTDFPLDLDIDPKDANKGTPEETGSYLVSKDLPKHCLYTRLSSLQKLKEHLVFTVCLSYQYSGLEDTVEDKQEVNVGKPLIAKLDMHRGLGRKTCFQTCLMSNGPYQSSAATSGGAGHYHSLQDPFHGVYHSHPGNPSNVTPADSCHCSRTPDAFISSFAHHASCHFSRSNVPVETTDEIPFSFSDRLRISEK
Summary of the method: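 Full-length Avi-tagged human MALT-1 (40 nM working stock) pre-incubated 30 min at RT with compound in 25 mM HEPES pH 6.89, 660 mM sodium citrate, 1 mM TCEP, […], 0.05% CHAPS, 2% DMSO. Ac-LRSR-AMC added at Km (50 μM working stock) or 10×Km (280 μM working stock); 90 min at RT, AMC fluorescence (ex 342/em 441 nm), IC50 from % inhibition curves.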

[1] = test system: NF-kB reporter in Jurkat cells; assay: NF-kB reporter assay in Jurkat cells stimulated with aCD3/aCD28/PMA; assay type: cell-based; conditions: Jurkat cells, 1 hr compound pre-incubation, aCD3/aCD28/PMA stimulation 4 hr, One-Glo readout, read-out: NF-kB Reporter Assay IC50
Summary of the method: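 Jurkat cells (25,000/well, serum-free RPMI) were pre-incubated 1 h at 37° C with serially diluted compound, then stimulated 4 h with aCD3/aCD28/PMA at final […]. NF-kB reporter activity was read by One-Glo luminescence; IC50 values reported.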

Row | Molecule | IC50 (Avi-tagged FL MALT-1) [nM] | IC50 ([1]; Homo sapiens) [nM] | IC50 [1] [nM]
1 | COc1ccc2cnn(C)c2c1NS(=O)(=O)c1cnn(-c2cc(C3(O)CC(C)(C)C3)ccn2)c1 [Compound I-479] | > 2500 | < 400 | –
2 | COc1ccc2cnn(C)c2c1NS(=O)(=O)c1cnn(-c2cc(C3(OC)CC(C)(C)C3)ccn2)c1 [Compound I-480] | > 2500 | < 400 | –
3 | COCC(C)(C)c1ccnc(-n2cc(S(=O)(=O)Nc3cccc4cnn(C)c34)cn2)c1 [Compound I-481, 1-(4-(1-methoxy-2-methylpropan-2-yl)pyridin-2-yl)-N-(1-methyl-1H-indazol-7-yl)-1H-pyrazole-4-sulfonamide] | > 2500 | < 400 | –
4 | COCC(C)(C)c1ccnc(-n2cc(S(=O)(=O)Nc3c(OC)ccc4cnn(C)c34)cn2)c1 [Compound I-482, N-(6-methoxy-1-methyl-1H-indazol-7-yl)-1-(4-(1-methoxy-2-methylpropan-2-yl)pyridin-2-yl)-1H-pyrazole-4-sulfonamide] | 400 to 1000 | < 400 | –
5 | Cn1ncc2cccc(NS(=O)(=O)c3cnn(-c4cc(C5(C#N)COC5)ccn4)c3)c21 [Compound I-483] | > 2500 | < 400 | –
6 | COC1(c2ccnc(-n3cc(S(=O)(=O)Nc4cccc5cnn(C)c45)cn3)c2)CC2(CC2)C1 [Compound I-484, 1-(4-(5-methoxyspiro[2.3]hexan-5-yl)pyridin-2-yl)-N-(1-methyl-1H-indazol-7-yl)-1H-pyrazole-4-sulfonamide] | > 2500 | < 400 | –
7 | COc1ccc2cnn(C)c2c1NS(=O)(=O)c1cnn(-c2cc(C3(OC)CC4(CC4)C3)ccn2)c1 [Compound I-485, N-(6-methoxy-1-methylindazol-7-yl)-1-(4-{5-methoxyspiro [2.3]hexan-5-yl}pyridin-2-yl) pyrazole-4-sulfonamide] | 400 to 1000 | < 400 | –
8 | N-(6-Methoxy-1-Methyl-1H-Indazol-7-yl)-1-(4-(Trifluoromethyl)Pyridin-2-yl)-1H-Pyrazole-4-Sulfonamide [Compound I-5] | ≤ 400 | – | < 400
